For assay [1], the system named is anti-HBsAG antibody. In words: Fluorescence immunoassay with FAM switching peptide and TQ2 quenching material (FIGS. 9-12). The class given is binding. The note with it: for fluorescence intensity, antigen selectivity: HBsAg. An excerpt: FIG. 9 is a graph illustrating a fluorescence intensity measured after reacting an anti-HBSAG antibody to which an H2 switching peptide of Example 2 and a Tide-Quencher 2 (TQ2) quenching material are bound, with HBsAg, Inf A, Inf B (Florida), Inf B (Tokio), and PBS sample solutions, respectively.
FIG. 10 is a graph illustrating a fluorescence intensity measured after reacting the anti-HBsAG antibody to which the H2 switching peptide of Example 2 and the Tide-Quencher 2 (TQ2) quenching material are bound, with detection sample solutions each containing various concentrations of HBsAg antigens.
FIG. 11 is a graph illustrating a fluorescence intensity measured after binding the anti-HBsAG antibody to which the H2 switching peptide of Example 2 and the Tide-Quencher 2 (TQ2) quenching material are bound, to protein A beads and reacting it with detection sample solutions containing various concentrations of the HBsAg antigens.
FIG. 12 is graphs illustrating a fluorescence intensity measured after reacting the anti-HBsAG antibody to which one of the L1, H1, L2 and H2 switching peptides of Example 2 and the TQ2 quenching material is bound, with HRP, CRP, HBsAg, and hCG sample solutions, respectively.

For assay [2], the system named is rabbit anti-HRP antibodies. In words: Papain treatment of immobilized antibody with bound switching peptide (FIG. 7). In kind it is binding. The conditions noted are these: after papain treatment compared to before. An excerpt:
FIG. 7A is a schematic diagram illustrating states before and after treatment of the antibody to which the four types of peptides of Example 1 were bound, respectively, with papain, which is a protease, and FIG. 7B is graphs illustrating a fluorescence intensity measured at a bottom (B) of the microplate and in a solution(S) after the papain treatment. In the case of this experiment, after immobilization of the antibodies (rabbit anti-HRP antibodies) on the microplate, binding between the antibody and the switching peptide was induced by treatment with a fluorescently labeled switching peptide, the unbound switching peptide was removed, and then the Fab region was hydrolyzed from the immobilized antibodies by adding papain, which is a protease.
Referring to FIG. 7A, the fluorescence at the bottom (B) of the microplate is expected to decrease after the papain reaction because the fluorescently labeled switching peptides are bound to the Fab region of antibodies, and the fluorescence in the solution is expected to increase because the Fab region to which the switching peptide is bound is hydrolyzed and dissolved into the solution. This prediction is proven to be true from the graphs of FIG. 7B.

For assay [3], the system named is Anti-HRP antibody(r). In words: Release of fluorescently labeled switching peptide from immobilized antibody on antigen binding (Table 4). The note with it: after treatment with antigen HRP. Also on record: species or system rabbit.
In assay [4] the test system is Anti-HBsAg antibody(g). Described as above. The conditions noted are these: after treatment with antigen HBsAg. Also on record: species or system goat.
The test system of assay [5] is Anti-hCG antibody(m). Described as above. Further details: species or system mouse.
The subject of assay [6] is Anti-CRP antibody(r). Described as above. Also on record: species or system rabbit.
The subject of assay [7] is anti-HRP antibody from a rabbit. Put plainly: One-step immunoassay with varying HRP concentration (FIG. 8). The class given is binding. The conditions noted are these: HRP 0.3 to 100 μM (FIG. 8B). An excerpt: FIG. 8A is a schematic diagram for explaining an immunoassay method using fluorescently labeled peptide compounds of Example 1, and FIGS. 8B and 8C are graphs illustrating the fluorescence intensity in a solution and at a bottom of the microplate depending on a concentration of the antigen measured by the immunoassay method illustrated in FIG. 8A. In this experiment, an anti-HRP antibody from a rabbit immobilized on a microplate was used as the binding antibody and HRP was used as the antigen.

In assay [8] the test system is Inf-A. In words: One-step immunoassay detection of Inf-A with switching-peptide-bound binding antibody (FIG. 18, 20B). Also on record: species or system Influenza A. The conditions noted are these: anti-Inf-A antibody bound to the peptide, treated with Inf-A, CRP, BSA.
Assay [9] concerns Inf-B. Put plainly: One-step immunoassay detection of Inf-B with switching-peptide-bound binding antibody (FIG. 19, 20D). The note with it: antibody bound to the peptide, treated with Inf-A, CRP, BSA. The source says:
Therefore, an antibody bound to the L1 peptide or the H2 peptide may be used for selective detection of the Inf-B.
Therefore, binding antibodies bound to the two types of peptides may have similar responses upon detection of Inf-A.
In addition, since it can be confirmed that the baseline is maintained in the experiment with CoV strain 229E, which is a negative control, the immunoassay based on the two types of binding antibodies may be used to detect Inf-B in actual samples.
Therefore, the immunoassay device using the switching peptide according to the present disclosure may sensitively detect Inf-B in a much wider detection range than conventional rapid tests, and the one-step immunoassay method according to the present disclosure may be used for much more sensitive detection of Inf-A and Inf-B in the entire detection range compared to conventional rapid tests.

Assay [10] relates to H2 peptide. Put plainly: FRET test of specific interaction between L1 and H2 peptides on microplate (FIG. 4A). The note with it: L1 (FAM) and H2 (TAMRA); L1 concentration varied. In kind it is binding. The source says: (§1) FIG. 4A is diagrams illustrating a method for confirming a specific interaction between L1 and H2 peptides and a specific interaction between L2 and H1 peptides and the measurement results thereof, and FIG. 4B is diagrams for explaining a specific interaction between L1 and H2 peptides and a specific interaction between L2 and H1 peptides analyzed using PyMOL software. Here, at the ends of the L1 and L2 peptides, a first fluorescent label, FAM (λex=488 nm, λem=532 nm) was modified, and at the ends of the H1 and H2 peptides, a second fluorescent label, TAMRA (ex=532 nm, hem=570 nm) was modified. Meanwhile, the first peptide (L1 or L2) was immobilized on a parylene-H-coated microplate through a covalent bond between a formyl group of parylene-H and a primary amine group of a lysine residue in the peptide, and a second peptide (H2 or H1) was incubated with the immobilized first peptide (L1 or L2) to allow specific interactions between them.

In assay [11] the test system is anti-HBsAG antibody. Put plainly: Graphene-quenched immunoassay with TAMRA L1 switching peptide (FIG. 13). The note with it: L1 labeled with TAMRA; graphene quenching material. The class given is binding. The source says: FIG. 13 is graphs illustrating a fluorescence intensity measured after binding an anti-HBsAg antibody to which an L1 switching peptide labeled with a TAMRA fluorescent label is bound, to a graphene quenching material and reacting it with an HBsAg sample solution.

The subject of assay [12] is anti-inf A antibody. In words: Graphene-quenched immunoassay with TAMRA L1 switching peptide (FIG. 14). The class given is binding. The note with it: L1 labeled with TAMRA; graphene quenching material. The source says:
FIG. 14 is a graph illustrating a fluorescence intensity measured after binding an anti-inf A antibody to which an L1 switching peptide labeled with a TAMRA fluorescent label is bound, to a graphene quenching material and reacting it with an Influenza A sample solution.

Assay [13] concerns anti-SARS-COV-2 antibody. In words: Graphene-quenched immunoassay with TAMRA L1 switching peptide (FIG. 15). In kind it is binding. The note with it: L1 labeled with TAMRA; graphene quenching material. An excerpt: FIG. 15 is a graph illustrating a fluorescence intensity measured after binding an anti-SARS-COV-2 antibody to which an L1 switching peptide labeled with a TAMRA fluorescent label is bound, to a graphene quenching material and reacting it with a SARS-CoV-2 sample solution.

The subject of assay [14] is L2 peptide. Put plainly: FRET test of specific interaction between H1 and L2 peptides on microplate (FIG. 4A). The class given is binding. The conditions noted are these: H1 (TAMRA) and L2 (FAM); H1 concentration varied.
Source text: as §1

Where [15] appears, read: FAM switching peptides of Example 2, TQ2, HRP, CRP, hCG sample solutions (FIG. 12).

Ends that are not written are not given here. FAM = carboxyfluorescein (FAM) fluorescent label

As to “FAM-VYYCAREPTGTGIYFDVWGK ({FAM}-VYYCAREPTGTGIYFDVWGK) [H2 switching peptide of Example 2]”, the “fluorescence intensity, antigen selectivity” value in assay [1] (TQ2 quencher, Inf A, Inf B (Florida), Inf B (Tokio), PBS sample solutions (FIG. 9)) is “high intensity fluorescence was measured only for the HBsAg antigen”. In assay [1] (TQ2 quencher, antibody bound to protein A beads (FIG. 11)), the “fluorescence intensity versus HBsAg concentration” value is “increased as the concentration of HBsAg antigens of the detection sample solution increased”.

As for “VYYCAREPTGTGIYFDVWGK [H2, VYYCA REPTG TGIYF DVWGK]”, the “increase of fluorescence intensity in the solution” value (“increase of fluorescence intensity” below) in [2] is listed as 2,356%. In addition, the figures for the “fluorescence intensity at the bottom of the plate decreased by” value in assay [3] and in assay [4] were 14.8% and 63.9%, respectively. The “In solution (S), Change (%)” value in assay [5] is “+416%”; in assay [6], “+677%”. Moreover, the “fluorescence intensity in the solution versus antigen concentration” value in assay [7] was “increase in the fluorescence intensity in the solution was observed depending on the concentration of the antigen”. In assay [1] (FAM switching peptides of Example 2, TQ2 (FIG. 12)), the “specificity for the antigen compared with other switching peptides” value is “specificity for the antigen was relatively low”. The “fluorescence intensity, antigen selectivity” value in assay [1] (setting [15]) is on record as “high intensity fluorescence was measured only for the HBsAg antigen”. In addition, the figures for the “fluorescence signal, selectivity” value in [8] and in assay [9] were “significantly higher fluorescence signal is generated when the Inf-A is treated” and “significantly higher fluorescence signal was generated when the Inf-B is treated”, respectively.

Take VYYCFQGSHVPFTK [L2, VYYCF QGSHV PFTK]: in assay [2], the “increase of fluorescence intensity” value is recorded as 2,452%. For the same substance, the “fluorescence intensity at the bottom of the plate decreased by” value in [3] is listed as 25.5%; in assay [4], 35.2%. In addition, the results for the “In solution (S), Change (%)” value in assay [5] and in [6] were “+456%” and “+883%”, respectively. Further, in [7], the “fluorescence intensity in the solution versus antigen concentration” value was “increase in the fluorescence intensity in the solution was observed depending on the concentration of the antigen”. Besides, the “fluorescence intensity, antigen selectivity” value in assay [1] (setting [15]) is “high intensity fluorescence was measured only for the HBsAg antigen”.

As for “TYLEWYPQKPGQSPKLLIYK [L1, TYLEW YPQKP GQSPK LLIYK]”, in assay [10], the FRET intensity entry is given as “FRET intensity increased with increasing the concentration of the L1 peptide”. Besides, the “increase of fluorescence intensity” value in [2] is recorded as 1,032%. Moreover, the “fluorescence intensity at the bottom of the plate decreased by” value in assay [3] was determined as 12.7%; in assay [4] it was 48.7%. Also, the figures for the “In solution (S), Change (%)” value in assay [5] and in [6] were “+187%” and “+778%”, respectively. The “fluorescence intensity in the solution versus antigen concentration” value in assay [7] is on record as “increase in the fluorescence intensity in the solution was observed depending on the concentration of the antigen”. Further, the “fluorescence intensity, antigen selectivity” value in [1] (setting [15]) is given as “high intensity fluorescence was measured only for the HBsAg antigen”. Moreover, the “fluorescence intensity versus HBsAg concentration” value in assay [11] is “increased almost linearly as the concentration of the HBsAg antigen contained in the HBsAg sample solution increased”. In addition, in assay [12], the “fluorescence intensity versus Influenza A antigen concentration” value is listed as “increased almost linearly as the concentration of the Influenza A antigen contained in the Influenza A sample solution increased”. Further, the “fluorescence intensity versus SARS-COV-2 antigen concentration” value in assay [13] is “increased as the concentration of the SARS-COV-2 antigen contained in the SARS-COV-2 sample solution increased”. In addition, the “fluorescence signal, selectivity” value in assay [8] is reported as “significantly higher fluorescence signal is generated when the Inf-A is treated”; in assay [9] it was “significantly higher fluorescence signal was generated when the Inf-B is treated”.

For “SYWIHWVKQRPGQGLEWIGE [H1, SYWIH WVKQR PGQGL EWIGE]”, in [14], the FRET intensity entry is on record as “FRET intensity was observed to increase with increasing the concentration of the H1 peptide”. For the same substance, the “increase of fluorescence intensity” value in assay [2] is recorded as 2,184%. In addition, the “fluorescence intensity at the bottom of the plate decreased by” value in [3] is 12.3%; in [4], 41.1%. Also, the “In solution (S), Change (%)” value in [5] is “+206%”; in [6] it was “+152%”. For the same substance, the “fluorescence intensity in the solution versus antigen concentration” value in assay [7] is given as “increase in the fluorescence intensity in the solution was observed depending on the concentration of the antigen”. In addition, the “fluorescence intensity, antigen selectivity” value in assay [1] (setting [15]) was “high intensity fluorescence was measured only for the HBsAg antigen”.

The values above are taken from patent publication US20250341517A1, “SWITCHING PEPTIDE, IMMUNOASSAY DEVICE COMPRISING SAME, AND IMMUNOASSAY METHOD USING SAME” (OPTOLANE TECHNOLOGIES INC., priority 2021, published 2025).
